Values of other authors, collected in patent US20230143309A1, “PYRROLOBENZODIAZEPINE ANTIBODY CONJUGATES” (priority 2016, published 2023).

What was measured:
human tumour cell lines = settings: for activity against a range of human tumour cell lines: quoted from UCL REF 2014 impact study
[1] = tested on: human tumour xenograft models; settings: quoted from UCL REF 2014 impact study

Compound | activity against a range of human tumour cell lines (human tumour cell lines) | activity in human tumour xenograft models [1] | cytotoxicity relative to SG2057 (less cytotoxic) (human tumour cell lines; Hartley et al 2012)
C=C1C[C@H]2C=Nc3cc(OCCCCCOc4cc5c(cc4OC)C(=O)N4CC(=C)C[C@H]4C=N5)c(OC)cc3C(=O)N2C1 [SG2057] | picomolar/sub-picomolar activity | curative activity | 
C=C1C[C@H]2C=Nc3cc(OCCCOc4cc5c(cc4OC)C(=O)N4CC(=C)C[C@H]4C=N5)c(OC)cc3C(=O)N2C1 [SG2000] |  |  | at least 10 times
COc1ccc(C2=CN3C(=O)c4cc(OC)c(OCCCOc5cc6c(cc5OC)C(=O)N5C=C(c7ccc(OC)cc7)C[C@H]5C=N6)cc4N=C[C@@H]3C2)cc1 [SG2202] | picomolar/sub-picomolar activity | curative activity | 
